The record followed here is US10961309B2, “Reducing systemic regulatory T cell levels or activity for treatment of disease and injury of the CNS” (Yeda Research and Development Co. Ltd, priority 2014, dated 2021).

Entries after “also recorded” stand apart in the source; their conditions may differ.

Common to all, as to format: in vivo, mouse
The test system of test [1] is soluble Aβ1-40 and Aβ1-42. Briefly: Soluble Aβ (sAβ) protein quantification by ELISA. The procedure:
Tissue homogenization and sAβ protein extraction was performed as previously described (Schmidt et al, 2005). Briefly, cerebral brain parenchyma was dissected and snap-frozen and kept at −80° C. until homogenization. Proteins were sequentially extracted from samples to obtain separate fractions containing proteins of differing solubility. Samples were homogenized in 10 volumes of ice-cold tissue homogenization buffer, containing 250 mM of sucrose, 20 mM of Tris base, 1 mM of ethylenediaminetetraacetic acid (EDTA), and 1 mM of ethylene glycol tetraacetic acid (pH 7.4), using a ground glass pestle in a Dounce homogenizer. After six strokes, the homogenate was mixed 1:1 with 0.4% diethylamine (DEA) in a 100-mM NaCl solution before an additional six strokes, and then centrifuged at 135,000 g at 4° C. for 45 min. The supernatant (DEA-soluble fraction containing extracellular and cytosolic proteins) was collected and neutralized with 10% of 0.5M of Tris-HCl (pH 6.8). Aβ1-40 and Aβ1-42 were individually measured by enzyme-linked immunosorbent assay (ELISA) from the soluble fraction using commercially available kits (Biolegend; #SIG-38954 and #SIG-38956, respectively) according to the manufacturer instructions.
Background: In an ELISA, binding on a coated surface is turned into a signal by an enzyme label.

Another test concerns Aβ plaques. Briefly: Aβ plaque quantitation (immunohistochemistry). The method, then:
Tissue processing and immunohistochemistry were performed on paraffin embedded sectioned mouse (6 μm thick) and human (10 μm thick) brains. For human ICAM-1 staining, primary mouse anti-ICAM (1:20 Abcam; ab2213) antibody was used. Slides were incubated for 10 min with 3% H2O2, and a secondary biotin-conjugated anti-mouse antibody was used, followed by biotin/avidin amplification with Vectastain ABC kit (Vector Laboratories). Subsequently, 3,3′-diaminobenzidine (DAB substrate) (Zytomed kit) was applied; slides were dehydrated and mounted with xylene-based mounting solution. For tissue stainings, mice were transcardially perfused with PBS prior to tissue excision and fixation. CP tissues were isolated under a dissecting microscope (Stemi DV4; Zeiss) from the lateral, third, and fourth ventricles of the brain. For whole mount CP staining, tissues were fixated with 2.5% paraformaldehyde (PFA) for 1 hour at 4° C., and subsequently transferred to PBS containing 0.05% sodium azide. Prior to staining, the dissected tissues were washed with PBS and blocked (20% horse serum, 0.3% Triton X-100, and PBS) for 1 h at room temperature. Whole mount staining with primary antibodies (in PBS containing 2% horse serum and 0.3% Triton X-100), or secondary antibodies, was performed for 1 h at room temperature. Each step was followed by three washes in PBS. The tissues were applied to slides, mounted with Immu-mount (9990402, from Thermo Scientific), and sealed with cover-slips. For staining of sectioned brains, two different tissue preparation protocols (paraffin embedded or microtomed free-floating sections) were applied, as previously described (Baruch et al, 2013; Kunis et al, 2013). The following primary antibodies were used: mouse anti-Aβ (1:300, Covance, #SIG-39320); rabbit anti-GFP (1:100, MBL, #598); rat anti-CD68 (1:300, eBioscience, #14-0681); rat anti-ICAM-1 (1:200, Abcam, #AB2213); goat anti-GFP (1:100, Abcam, #ab6658); rabbit anti-IBA-1 (1:300, Wako, #019-19741); goat anti-IL-10 (1:20, R&D systems, #AF519); rat anti-Foxp3 (1:20, eBioscience, #13-5773-80); rabbit anti-CD3 (1:500, Dako, #IS503); mouse anti-ZO-1, mouse anti-E-Cahedrin, and rabbit anti-Claudin-1 (all 1:100, Invitrogen, #33-9100, #33-4000, #51-9000); rabbit anti-GFAP (1:200, Dako, #Z0334). Secondary antibodies included: Cy2/Cy3/Cy5-conjugated donkey anti-mouse/goat/rabbit/rat antibodies (1:200; all from Jackson Immunoresearch). The slides were exposed to Hoechst nuclear staining (1:4000; Invitrogen Probes) for 1 min. Two negative controls were routinely used in immunostaining procedures, staining with isotype control antibody followed by secondary antibody, or staining with secondary antibody alone. For Foxp3 intracellular staining, antigen retrieval from paraffin-embedded slides was performed using Retreivagen Kit (#550524, #550527; BD Pharmingen™). Microscopic analysis, was performed using a fluorescence microscope (E800; Nikon) or laser-scanning confocal microscope (Carl Zeiss, Inc.). The fluorescence microscope was equipped with a digital camera (DXM 1200F; Nikon), and with either a 20× NA 0.50 or 40× NA 0.75 objective lens (Plan Fluor; Nikon). The confocal microscope was equipped with LSM 510 laser scanning capacity (three lasers: Ar 488, HeNe 543, and HeNe 633). Recordings were made on postfixed tissues using acquisition software (NIS-Elements, F3 [Nikon] or LSM [Carl Zeiss, Inc.]). For quantification of staining intensity, total cell and background staining was measured using ImageJ software (NIH), and intensity of specific staining was calculated, as previously described (Burgess et al, 2010). Images were cropped, merged, and optimized using Photoshop CS6 13.0 (Adobe), and were arranged using Illustrator CS5 15.1 (Adobe).
From each brain, 6 μm coronal slices were collected, and eight sections per mouse, from four different pre-determined depths throughout the region of interest (dentate gyrus or cerebral cortex) were immunostained. […]

Test [2] has as its system splenocytes (CD4+Foxp3+ Tregs, CD4+ IFN-γ+ T cells). Briefly: Flow cytometry of splenocytes. As to conditions: p300i 8.9 mg/kg/d i.p. 1 week vs vehicle (DMSO), aged mice (18 months), a day after cessation. The procedure: (§1) Mice were transcardially perfused with PBS, and tissues were treated as previously described (Baruch et al, 2013). Brains were dissected and the different brain regions were removed under a dissecting microscope (Stemi DV4; Zeiss) in PBS, and tissues were dissociated using the gentleMACS™ dissociator (Miltenyi Biotec). Choroid plexus tissues were isolated from the lateral, third and fourth ventricles of the brain, incubated at 37° C. for 45 min in PBS (with Ca^2+/Mg^2+) containing 400 U/ml collagenase type IV (Worthington Biochemical Corporation), and then manually homogenized by pipetting. Spleens were mashed with the plunger of a syringe and treated with ACK (ammonium chloride potassium) lysing buffer to remove erythrocytes. In all cases, samples were stained according to the manufacturers' protocols. All samples were filtered through a 70 μm nylon mesh, and blocked with anti-Fc CD16/32 (1:100; BD Biosciences). For intracellular staining of IFN-γ, the cells were incubated with […] (10 ng/ml; Sigma-Aldrich) and ionomycin (250 ng/ml; Sigma-Aldrich) for 6 h, and Brefeldin-A (10 μg/ml; Sigma-Aldrich) was added for the last 4 h. Intracellular labeling of cytokines was done with BD Cytofix/Cytoperm™ Plus fixation/permeabilization kit (cat. no. 555028). For Treg staining, an eBioscience FoxP3 staining buffer set (cat. no. 00-5523-00) was used. The following fluorochrome-labeled monoclonal antibodies were purchased from BD Pharmingen, BioLegend, R&D Systems, or eBiosciences, and used according to the manufacturers' protocols: PE or Alexa Fluor 450-conjugated anti-CD4; PE-conjugated anti-CD25; PerCP-Cy5.5-conjugated anti-CD45; FITC-conjugated anti-TCRβ; APC-conjugated anti-IFN-γ; APC-conjugated anti-FoxP3; Brilliant-violet-conjugated anti-CD45. Cells were analyzed on an LSRII cytometer (BD Biosciences) using FlowJo software. In each experiment, relevant negative control groups, positive controls, and single stained samples for each tissue were used to identify the populations of interest and to exclude other populations.
Background: Flow cytometry measures light scatter and fluorescence of single cells or particles in a stream.

In test [3] the test system is IFN-γ-expressing immune cells in the CP. Briefly: Flow cytometry of CP IFN-γ-expressing immune cells. As to conditions: p300i 1 week vs vehicle (DMSO), aged mice (18 months), a day after cessation. The procedure:
as §1, with “For Treg staining, an eBioscience FoxP3 staining buffer set (cat. no. 00-5523-00) was used. The following fluorochrome-labeled monoclonal antibodies were purchased from BD Pharmingen, BioLegend, R&D Systems, or eBiosciences, and used according to the manufacturers' protocols: PE or Alexa Fluor 450-conjugated anti-CD4; PE-conjugated anti-CD25; PerCP-Cy5.5-conjugated anti-CD45; FITC-conjugated anti-TCRβ; APC-conjugated anti-IFN-γ; APC-conjugated anti-FoxP3; Brilliant-violet-conjugated anti-CD45.” left out, “In each experiment, relevant negative control groups, positive controls, and single stained samples for each tissue were used to identify the populations of interest and to exclude other populations.” left out

Where [4] appears, read: two courses of p300i, interval of 1 month.

Consider `CC1=NN(c2ccc(C(=O)O)cc2)C(=O)/C1=C\c1ccc(-c2cc(C)c(C)cc2[N+](=O)[O-])o1` [p300i, 4-(4-((5-(4,5-dimethyl-2-nitrophenyl)furan-2-yl)methylene)-3-methyl-5-oxo-4,5-dihydro-1H-pyrazol-1-yl)benzoic acid], for which the “cerebral sAβ levels” value in test [1] (one course of p300i) is on record as “effective in reducing cerebral sAβ”. For the same compound, in test [1] (setting [4]), the “cerebral sAβ levels” value is “effective in reducing cerebral sAβ” and the “effect on sAβ1-42, repeated courses vs one course” value is listed as “stronger”. Besides, the “cerebral Aβ plaque load” value with Aβ plaques (p300i 1 week, examined 3 weeks later, 10-month old AD-Tg mice) is on record as “significant reduction in cerebral Aβ plaque load”. The “cerebral plaque load (cortex 5th layer)” value in the test with Aβ plaques (single course of p300i, examined 2 months later, AD-Tg mice age 7 months) is “reduction of cerebral plaque load was evident”. The “reduction of cerebral plaque load, two courses vs single course” value with Aβ plaques (two courses of p300i with a 1-month interval) is listed as “stronger”. Moreover, the “IFN-γ-expressing cells (CD4+ T cells) in the spleen” value in test [2] was “elevated levels; also recorded: elevation”. In addition, the “IFN-γ-expressing immune cells in the CP” value in test [3] is recorded as “elevated levels; also recorded: elevation”.
